From ChEMBL document CHEMBL1143804, “Synthesis and antibacterial evaluation of 1beta-methyl-2-[5-(1-methoxyimino-2-substituted sulfonamide ethyl)pyrrolidin-3-ylthio]carbapenems and their related compounds” (2007)
Values after ≈ are worked out from the molar mass of the structure shown.

How the values were obtained:
Salmonella typhimurium = experiment: Antibacterial activity against Salmonella Typhimurium; format: functional, Salmonella enterica subsp. enterica serovar Typhimurium; conditions: Salmonella enterica
Pseudomonas aeruginosa = experiment: Antibacterial activity against Pseudomonas aeruginosa 9027; format: functional
Streptococcus pyogenes [1] = experiment: Antibacterial activity against Streptococcus pyogenes 308A; format: functional
Escherichia coli [2] = experiment: Antibacterial activity against Escherichia coli DC2; format: functional
Streptococcus pyogenes [3] = experiment: Antibacterial activity against Streptococcus pyogenes 77A; format: functional
Escherichia coli [4] = experiment: Antibacterial activity against Escherichia coli TEM; format: functional
Klebsiella aerogenes = experiment: Antibacterial activity against Klebsiella aerogenes 1522E; format: functional
Enterobacter cloacae = experiment: Antibacterial activity against Enterobactor cloacae 1321E; format: functional
Staphylococcus aureus [5] = experiment: Antibacterial activity against Staphylococcus aureus 285; format: functional
Staphylococcus aureus [6] = experiment: Antibacterial activity against Staphylococcus aureus SG511; format: functional

MIC (Salmonella typhimurium) [µg/mL] | MIC (Pseudomonas aeruginosa) [µg/mL] | MIC (Streptococcus pyogenes [1]) [µg/mL] | MIC (Escherichia coli [2]) [µg/mL] | MIC (Streptococcus pyogenes [3]) [µg/mL] | MIC (Escherichia coli [4]) [µg/mL] | MIC (Klebsiella aerogenes) [µg/mL] | MIC (Enterobacter cloacae) [µg/mL] | MIC (Staphylococcus aureus [5]) [µg/mL] | MIC (Staphylococcus aureus [6]) [µg/mL] | SMILES
0.781 (≈ 1.64 µM) | 12.5 (≈ 26.2 µM) | 0.098 (≈ 0.206 µM) | 0.195 (≈ 0.409 µM) | 0.098 (≈ 0.206 µM) | 0.195 (≈ 0.409 µM) | 0.781 (≈ 1.64 µM) | 0.391 (≈ 0.82 µM) | 0.391 (≈ 0.82 µM) | 0.195 (≈ 0.409 µM) | CO/N=C(\CNS(C)(=O)=O)[C@@H]1C[C@H](SC2=C(C(=O)O)N3C(=O)[C@H]([C@@H](C)O)[C@H]3[C@H]2C)CN1
0.098 (≈ 0.222 µM) | 1.56 (≈ 3.53 µM) | < 0.01 | 0.049 (≈ 0.111 µM) | 0.013 (≈ 0.0294 µM) | 0.049 (≈ 0.111 µM) | 0.195 (≈ 0.442 µM) | 0.049 (≈ 0.111 µM) | 0.195 (≈ 0.442 µM) | 0.098 (≈ 0.222 µM) | CO/N=C(\CNC(N)=O)[C@@H]1C[C@H](SC2=C(C(=O)O)N3C(=O)[C@H]([C@@H](C)O)[C@H]3[C@H]2C)CN1
0.025 (≈ 0.0494 µM) | 3.12 (≈ 6.17 µM) | < 0.01 | 0.013 (≈ 0.0257 µM) | < 0.01 | 0.049 (≈ 0.0969 µM) | 0.049 (≈ 0.0969 µM) | 0.025 (≈ 0.0494 µM) | 0.098 (≈ 0.194 µM) | 0.049 (≈ 0.0969 µM) | CCNS(=O)(=O)NC/C(=N\OC)[C@@H]1C[C@H](SC2=C(C(=O)O)N3C(=O)[C@H]([C@@H](C)O)[C@H]3[C@H]2C)CN1
0.098 (≈ 0.246 µM) | 3.12 (≈ 7.83 µM) | < 0.01 | 0.049 (≈ 0.123 µM) | < 0.01 | 0.195 (≈ 0.489 µM) | 0.195 (≈ 0.489 µM) | 0.098 (≈ 0.246 µM) | 0.195 (≈ 0.489 µM) | 0.098 (≈ 0.246 µM) | CO/N=C(\CN)[C@@H]1C[C@H](SC2=C(C(=O)O)N3C(=O)[C@H]([C@@H](C)O)[C@H]3[C@H]2C)CN1
0.195 (≈ 0.386 µM) | 6.25 (≈ 12.4 µM) | 0.025 (≈ 0.0494 µM) | 0.098 (≈ 0.194 µM) | 0.013 (≈ 0.0257 µM) | 0.098 (≈ 0.194 µM) | 0.391 (≈ 0.773 µM) | 0.195 (≈ 0.386 µM) | 0.195 (≈ 0.386 µM) | 0.195 (≈ 0.386 µM) | CO/N=C(\CNS(=O)(=O)N(C)C)[C@@H]1C[C@H](SC2=C(C(=O)O)N3C(=O)[C@H]([C@@H](C)O)[C@H]3[C@H]2C)CN1
